This is an account of results in patent publication US7501430B2 (ArQule, Inc., priority 2006, dated 2009).

This experiment deals with T1, mutant B-RAF (Homo sapiens, UniProt P15056, V600E).
T1 construct: purchased Upstate (Charlottesville, Va.)
As to the kind of experiment: RAF biochemical assay (MEK-1 phosphorylation, anti-phospho MEK1/2 detection). The following applies: for inhibition at 10 µM: read-out: Mutant B-RAF % inhibition. The method, then: Materials: The RAF kinases and the anti-phospho MEK1/2 antibody were from Upstate (Charlottesville, Va.). The RAF substrate used was full length N-terminal GST-MEK-1, which was expressed in E. coli and purified in-house by HPLC. All proteins were aliquoted and stored at −80° C.
Compounds were serially diluted in assay buffer containing 1% DMSO and 20 μL of test compound at a concentration 3-fold more than the final concentration, and were added to a polypropylene V-well reaction plate. Vehicle control wells received buffer only with DMSO at equivalent concentrations to the test wells. […] These reaction plates were incubated at room temperature for 30 minutes. Capture of MEK-1 was initiated by transferring 50 μl of the reaction mixture to a Nunc Maxisorp™ microplate that is designed for non-specific protein capture. After 30 minute capture of MEK-1 at room temperature, this plate was washed with TBST (6×200 μL/well) to fully terminate the reaction. The plate was then blocked for 1 hour by the addition of 100 μl/well of Superblock™ in phosphate buffered saline (PBS) blocking reagent. Plate was again washed with TBST (6 times with 200 μL/well), followed by the addition of 70 μL/well of Upstate anti-phospho MEK 1/2 diluted 1:1000 in Pierce Superblock (PBS). After a 60 minute incubation, this plate was washed with TBST (6 times with 200 μL/well), and 70 μL of the secondary antibody (Pierce Alkaline Phosphatase tagged goat anti-rabbit) prepared at 1:4000 in Superblock, were added. After a 45 minute incubation at room temperature, the wells of the microplate were washed with TBST (6 times with 200 μL/well), and thereafter 100 μl/well of Attophos™ fluorescent alkaline phosphatase substrate was added according to the manufacturer's instructions (JBL Scientific).

Where two headings read alike, the source gives them in different places.

T1 sequence (P15056 whole entry V600E): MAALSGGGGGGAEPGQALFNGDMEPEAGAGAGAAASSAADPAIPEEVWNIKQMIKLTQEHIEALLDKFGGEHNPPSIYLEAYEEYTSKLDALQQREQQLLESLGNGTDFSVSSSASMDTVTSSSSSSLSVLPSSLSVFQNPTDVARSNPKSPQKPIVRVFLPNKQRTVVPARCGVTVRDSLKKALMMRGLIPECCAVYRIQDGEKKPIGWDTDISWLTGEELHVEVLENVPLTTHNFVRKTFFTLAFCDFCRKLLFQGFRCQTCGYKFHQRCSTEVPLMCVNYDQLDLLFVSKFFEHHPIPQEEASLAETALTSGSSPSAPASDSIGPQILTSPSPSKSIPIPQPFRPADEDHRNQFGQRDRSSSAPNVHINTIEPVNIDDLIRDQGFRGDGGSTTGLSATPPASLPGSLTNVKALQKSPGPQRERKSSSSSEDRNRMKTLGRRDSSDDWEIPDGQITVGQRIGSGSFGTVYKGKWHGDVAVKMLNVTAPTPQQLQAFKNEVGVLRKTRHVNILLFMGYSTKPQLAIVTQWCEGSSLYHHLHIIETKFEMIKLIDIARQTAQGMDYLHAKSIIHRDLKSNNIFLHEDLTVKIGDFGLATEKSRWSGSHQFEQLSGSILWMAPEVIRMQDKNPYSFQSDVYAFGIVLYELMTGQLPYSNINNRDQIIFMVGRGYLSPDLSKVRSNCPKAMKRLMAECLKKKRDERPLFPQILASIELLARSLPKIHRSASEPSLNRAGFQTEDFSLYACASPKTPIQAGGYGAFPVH

For the compound `COc1ccc(-c2nc3sccn3c2-c2ccnc(NC3CCCN(S(=O)(=O)c4ccc(Cl)cc4)C3)n2)cc1OC` (stereo in doubt) [Example 135, N-{(3R)-1-[(4-chlorophenyl)sulfonyl]piperidin-3-yl}-4-[6-(3,4-dimethoxyphenyl)imidazo[2,1-b][1,3]thiazol-5-yl]pyrimidin-2-amine], the IC50 (read-out: Mutant B-RAF IC50) was determined as 696 nM.

For the compound `O=S(=O)(c1ccc(F)cc1)N1CCCC(Nc2nccc(-c3c(-c4ccc(F)cc4)nc4sccn34)n2)C1` (stereo not drawn) [Example 2, 4-[6-(4-fluorophenyl)imidazo[2,1-b][1,3]thiazol-5-yl]-N-{1-[(4-fluorophenyl)sulfonyl]piperidin-3-yl}pyrimidin-2-amine], the IC50 (read-out: Mutant B-RAF IC50) came to 458 nM.

For `Fc1ccc(CN2CCCC(Nc3nccc(-c4c(-c5ccc(F)cc5)nc5sccn45)n3)C2)cc1` (stereo not drawn) [Example 4], the inhibition at 10 µM (@ 10 uM) is 55%.

For the compound `Cc1ccc(NC(=O)N2CCC[C@@H](Nc3nccc(-c4c(-c5ccc(F)cc5)nc5occn45)n3)C2)cc1` [Example 17], the inhibition at 10 µM (@ 10 uM) came out at 16%.

`CN(C)c1ccc(NC(=O)N2CCC[C@@H](Nc3nccc(-c4c(-c5ccc(F)cc5)nc5occn45)n3)C2)cc1` [Example 24, (3R)-N-[4-(dimethyl-amino)phenyl]-3-({4-[6-(4-fluorophenyl)imidazo[2,1-b][1,3]oxazol-5-yl]pyrimidin-2-yl}amino)piperidine-1-carboxamide]: where the note is “@ 10 uM”, the inhibition at 10 µM came out at 60%.

`O=C(NCc1ccco1)N1CCC[C@@H](Nc2nccc(-c3c(-c4ccc(F)cc4)nc4occn34)n2)C1` [Example 25, (3R)-3-({4-[6-(4-fluorophenyl)imidazo[2,1-b][1,3]oxazol-5-yl]pyrimidin-2-yl}amino)-N-(2-furylmethyl)piperidine-1-carboxamide]: the inhibition at 10 µM (@ 10 uM) was found to be 35%.

As for `O=C(c1ccccc1)N1CCC[C@@H](Nc2nccc(-c3c(-c4ccc(F)cc4)nc4occn34)n2)C1` [Example 26, N-[(3R)-1-benzoylpiperidin-3-yl]-4-[6-(4-fluorophenyl)imidazo[2,1-b][1,3]oxazol-5-yl]pyrimidin-2-amine], the IC50 (read-out: Mutant B-RAF IC50) amounted to 195 nM.

With `COc1ccc(C(=O)N2CCC[C@@H](Nc3nccc(-c4c(-c5ccc(F)cc5)nc5occn45)n3)C2)cc1` [Example 27, 4-[6-(4-fluorophenyl)imi-dazo[2,1-b][1,3]oxazol-5-yl]-N-[(3R)-1-(4-methoxy-benzoyl)piperidin-3-yl]pyri-midin-2-amine], half-maximal inhibition (IC50) was put at 4890 nM.

As to `O=C(c1ccc(F)cc1)N1CCC[C@@H](Nc2nccc(-c3c(-c4ccc(F)cc4)nc4occn34)n2)C1` [Example 28, N-[(3R)-1-(4-fluorobenzoyl)piperidin-3-yl]-4-[6-(4-fluorophenyl)imi-dazo[2,1-b][1,3]oxazol-5-yl]pyrimidin-2-amine], the IC50 turned out to be 184 nM.

Take `O=C(COc1ccc(Cl)cc1)N1CCC[C@@H](Nc2nccc(-c3c(-c4ccc(F)cc4)nc4occn34)n2)C1` [Example 29, N-{(3R)-1-[(4-chlorophenoxy)acetyl]piper-idin-3-yl}-4-[6-(4-fluorophenyl)imidazo[2,1-b][1,3]oxazol-5-yl]pyrimidin-2-amine]: the IC50 (read-out: Mutant B-RAF IC50) came to 1820 nM.

On to `COCC(=O)N1CCC[C@@H](Nc2nccc(-c3c(-c4ccc(F)cc4)nc4occn34)n2)C1` [Example 30, 4-[6-(4-fluorophenyl)imi-dazo[2,1-b][1,3]oxazol-5-yl]-N-[(3R)-1-(methoxyacetyl)piperidin-3-yl]pyrimidin-2-amine], for which the IC50 turned out to be 711 nM.

For `O=C(C1CCCCC1)N1CCC[C@@H](Nc2nccc(-c3c(-c4ccc(F)cc4)nc4occn34)n2)C1` [Example 31, N-[(3R)-1-(cyclohexylcarbonyl)piperidin-3-yl]-4-[6-(4-fluorophenyl)imidazo[2,1-b][1,3]oxazol-5-yl]pyrimidin-2-amine], the concentration for half-maximal inhibition (IC50) (read-out: Mutant B-RAF IC50) was 2950 nM.

Compound `O=C(c1ccncc1)N1CCC[C@@H](Nc2nccc(-c3c(-c4ccc(F)cc4)nc4occn34)n2)C1` [Example 32, 4-[6-(4-fluorophenyl)imi-dazo[2,1-b][1,3]oxazol-5-yl]-N-[(3R)-1-isonicotinoylpiper-idin-3-yl]pyrimidin-2-amine] had an IC50 of 362 nM.

The compound `O=C(c1ccco1)N1CCC[C@@H](Nc2nccc(-c3c(-c4ccc(F)cc4)nc4occn34)n2)C1` [Example 33, 4-[6-(4-fluorophenyl)imi-dazo[2,1-b][1,3]oxazol-5-yl]-N-[(3R)-1-(2-furoyl)piperidin-3-yl]pyrimidin-2-amine] gave an IC50 of 2170 nM.

As for `CCC(=O)N1CCC[C@@H](Nc2nccc(-c3c(-c4ccc(F)cc4)nc4occn34)n2)C1` [Example 34, 4-[6-(4-fluorophenyl)imi-dazo[2,1-b][1,3]oxazol-5-yl]-N-[(3R)-1-propionylpiperidin-3-yl]pyrimidin-2-amine], the half-inhibitory concentration (IC50) turned out to be 1580 nM.

As for `NCC(=O)N1CCC[C@@H](Nc2nccc(-c3c(-c4ccc(F)cc4)nc4occn34)n2)C1` [Example 35, N-[(3R)-1-(aminoacetyl)piper-idin-3-yl]-4-[6-(4-fluorophenyl)imidazo[2,1-b][1,3]oxazol-5-yl]pyrimidin-2-amine], the inhibition at 10 µM (@ 10 uM) is 11%.

`CC(C)(N)C(=O)N1CCC[C@@H](Nc2nccc(-c3c(-c4ccc(F)cc4)nc4occn34)n2)C1` [Example 36, N-[(3R)-1-(2-amino-2-methylpropanoyl)piperidin-3-yl]-4-[6-(4-fluorophenyl)imi-dazo[2,1-b][1,3]oxazol-5-yl]pyrimidin-2-amine] yielded an IC50 of 4520 nM.

Consider `O=C([C@@H]1CCCN1)N1CCC[C@@H](Nc2nccc(-c3c(-c4ccc(F)cc4)nc4occn34)n2)C1` [Example 37, 4-[6-(4-fluorophenyl)imi-dazo[2,1-b][1,3]oxazol-5-yl]-N-[(3R)-1-L-prolylpiperidin-3-yl]pyrimidin-2-amine], for which the IC50 was more than 5000 nM.

The compound `O=C(CCc1ccccc1)N1CCC[C@@H](Nc2nccc(-c3c(-c4ccc(F)cc4)nc4occn34)n2)C1` [Example 38, 4-[6-(4-fluorophenyl)imi-dazo[2,1-b][1,3]oxazol-5-yl]-N-[(3R)-1-(3-phenylpro-panoyl)piperidin-3-yl]pyr-imidin-2-amine] had an IC50 of 2900 nM.

On to `CN(C)c1ccc(C(=O)N2CCC[C@@H](Nc3nccc(-c4c(-c5ccc(F)cc5)nc5occn45)n3)C2)cc1` [Example 39, N-{(3R)-1-[4-(dimethyl-amino)benzoyl]piperidin-3-yl}-4-[6-(4-fluorophenyl)imidazo[2,1-b][1,3]oxazol-5-yl]pyrimidin-2-amine], for which the IC50 (read-out: Mutant B-RAF IC50) amounted to 477 nM.

The compound `CC(C)CC(=O)N1CCC[C@@H](Nc2nccc(-c3c(-c4ccc(F)cc4)nc4occn34)n2)C1` [Example 40, 4-[6-(4-fluorophenyl)imi-dazo[2,1-b][1,3]oxazol-5-yl]-N-[(3R)-1-(3-methylbuta-noyl)piperidin-3-yl]pyrimidin-2-amine] showed an IC50 of 142 nM.

Regarding `O=C(N1CCOCC1)N1CCC[C@@H](Nc2nccc(-c3c(-c4ccc(F)cc4)nc4occn34)n2)C1` [Example 41, 4-[6-(4-fluorophenyl)imi-dazo[2,1-b][1,3]oxazol-5-yl]-N-[(3R)-1-(morpholin-4-ylcarbonyl)piperidin-3-yl]pyrimidin-2-amine], the inhibition at 10 µM was determined as 38%.

Consider `O=S(=O)(c1ccccc1)N1CCC[C@@H](Nc2nccc(-c3c(-c4ccc(F)cc4)nc4occn34)n2)C1` [Example 42, 4-[6-(4-fluorophenyl)imi-dazo[2,1-b][1,3]oxazol-5-yl]-N-[(3R)-1-(phenylsulfonyl)piperidin-3-yl]pyrimidin-2-amine], for which the “Mutant B-RAF % inhibition” value (@ 10 uM) is 68 @ 10 uM %.

Consider `O=S(=O)(c1ccc(Cl)cc1)N1CCC[C@@H](Nc2nccc(-c3c(-c4ccc(F)cc4)nc4occn34)n2)C1` [Example 43, N-{(3R)-1-[(4-chlorophenyl)sulfonyl]piper-idin-3-yl}-4-[6-(4-fluorophenyl)imidazo[2,1-b][1,3]oxazol-5-yl]pyrimidin-2-amine], for which the IC50 (read-out: Mutant B-RAF IC50) is 143 nM.

Regarding `COc1ccc(S(=O)(=O)N2CCC[C@@H](Nc3nccc(-c4c(-c5ccc(F)cc5)nc5occn45)n3)C2)cc1` [Example 44, 4-[6-(4-fluorophenyl)imi-dazo[2,1-b][1,3]oxazol-5-yl]-N-{(3R)-1-[(4-methoxy-phenyl)sulfonyl]piperidin-3-yl}pyrimidin-2-amine], the “Mutant B-RAF % inhibition” value (@ 10 uM) is given as 45 @ 10 uM %.

In turn, `Cc1ccc(S(=O)(=O)N2CCC[C@@H](Nc3nccc(-c4c(-c5ccc(F)cc5)nc5occn45)n3)C2)cc1` [Example 45, 4-[6-(4-fluorophenyl)imi-dazo[2,1-b][1,3]oxazol-5-yl]-N-{(3R)-1-[(4-methylphenyl)sulfonyl]piperidin-3-yl}pyr-imidin-2-amine] registered an IC50 of 590 nM.

In the case of `O=S(=O)(c1cccc(C(F)(F)F)c1)N1CCC[C@@H](Nc2nccc(-c3c(-c4ccc(F)cc4)nc4occn34)n2)C1` [Example 46, 4-[6-(4-fluorophenyl)imi-dazo[2,1-b][1,3]oxazol-5-yl]-N-((3R)-1-{[3-(trifluoro-methyl)phenyl]sulfonyl}piper-idin-3-yl)pyrimidin-2-amine], the “Mutant B-RAF % inhibition” value (@ 10 uM) was 19 @ 10 uM %.
